Assay results published in ChEMBL document CHEMBL4725270, “Chloroquine fumardiamides as novel quorum sensing inhibitors” (2020).
Activity calls are given as the source filed them. The rule behind the calls is not given here.

Key:
[1] = test system: Chromobacterium violaceum; assay: Inhibition of quorum sensing system in Chromobacterium violaceum ATCC 31532 assessed as reduction in violacein production at 400 uM relative to control
[2] = test system: Chromobacterium violaceum; assay: Bactericidal activity against Chromobacterium violaceum ATCC 31532 at 400 uM by resazurin dye based assay relative to control; assay type: functional
[3] = test system: Chromobacterium violaceum; assay: Inhibition of quorum sensing in violacein-negative Chromobacterium violaceum CV026 mini-Tn5 mutant assessed as quorum quenching by measuring violacein production at 400 uM in presence of C6-HSL relative to control; design: scale not given: the % may be the effect or the level left
[4] = test system: Chromobacterium violaceum; assay: Bactericidal activity against violacein-negative Chromobacterium violaceum CV026 mini-Tn5 mutant at 400 uM by resazurin dye based assay relative to control; assay type: functional
[5] = test system: Chromobacterium violaceum; assay: Inhibition of quorum sensing in Chromobacterium violaceum ATCC 31532 assessed as reduction in violacein production at 40 uM relative to control
[6] = test system: Chromobacterium violaceum; assay: Inhibition of quorum sensing in violacein-negative Chromobacterium violaceum CV026 mini-Tn5 mutant assessed as quorum quenching by measuring violacein production at 40 uM in presence of C6-HSL relative to control; design: scale not given: the % may be the effect or the level left
[7] = test system: Chromobacterium violaceum; assay: Inhibition of quorum sensing in Chromobacterium violaceum ATCC 31532 assessed as quorum quenching by measuring violacein production at 40 uM in presence of C6-HSL
[8] = test system: Chromobacterium violaceum; assay: Bactericidal activity against Chromobacterium violaceum ATCC 31532 assessed as reduction in cell viability at 400 uM by resazurin dye based assay relative to control
[9] = test system: Chromobacterium violaceum; assay: Inhibition of quorum sensing in Chromobacterium violaceum ATCC 31532 assessed as reduction in violacein production at 400 uM relative to control

`NCCNC(=O)/C=C/C(=O)NCCCCNc1ccnc2cc(Cl)ccc12` showed an inhibition [1] of 46.3%, an Activity [2] of 12.1% and an Activity [3] of 53.3%. The Activity [4] was 10.3%, the inhibition [5] was “inactive” and the Activity [6] was 52.5%.
`COc1cc(NC(C)CCCNC(=O)/C=C/C(=O)Nc2cccc(F)c2)c2ncccc2c1` (stereo unspecified) was tested, and the inhibition [1] was “inactive” and the Activity [2] was “inactive”.
In the case of `COc1cc(NC(C)CCCNC(=O)/C=C/C(=O)Nc2cccc(C(F)(F)F)c2)c2ncccc2c1` (stereo unspecified), the inhibition [1] is reported as “inactive”, the Activity [2] is reported as 16.4% and the Activity [7] is reported as “inactive”.
In the case of `NC1CCN(C(=O)/C=C/C(=O)NCCCCNc2ccnc3cc(Cl)ccc23)CC1`, the inhibition [1] is reported as 47.2%, the Activity [2] is reported as 16.2% and the Activity [3] is reported as 62.6%. The Activity [4] was 13.4%, the inhibition [5] was 7% and the Activity [6] was 39.9%.
In the case of `O=C(/C=C/C(=O)Nc1cccc(Cl)c1)NCCCCNc1cc(C(F)(F)F)nc2c(C(F)(F)F)cccc12`, the inhibition [1] is reported as 22.3% and the Activity [2] is reported as 22.3%.
`O=C(/C=C/C(=O)Nc1cccc(C(F)(F)F)c1)NCCCCNc1cc(C(F)(F)F)nc2c(C(F)(F)F)cccc12` gave an inhibition [1] of 22.3% and an Activity [2] of 13.8%.
For `Nc1ccc(NC(=O)/C=C/C(=O)NCCCCNc2ccnc3cc(Cl)ccc23)cc1`, the inhibition [1] was 4.7% and the Activity [2] was 17.5%.
With `CC(C)(C)OC(=O)N1CCC(NC(=O)/C=C/C(=O)NCCCCNc2ccnc3cc(Cl)ccc23)CC1` the inhibition [1] was “inactive” and the Activity [2] was 8.3%.
For `O=C(/C=C/C(=O)Nc1ccc(F)cc1)NCCCCNc1cc(C(F)(F)F)nc2c(C(F)(F)F)cccc12`, the inhibition [1] was 29.1% and the Activity [2] was “inactive”.
`CCN(CC)CCCC(C)Nc1ccnc2cc(Cl)ccc12` (stereo unspecified) [CHLOROQUINE] gave an inhibition [1] of 13.2% and an Activity [2] of 10.1%.
`O=C(/C=C/C(=O)Nc1cccc(F)c1)NCCCCNc1cc(C(F)(F)F)nc2c(C(F)(F)F)cccc12` was tested, and the inhibition [1] was 16.9% and the Activity [2] was “inactive”.
In the case of `O=C(/C=C/C(=O)Nc1ccc(Cl)cc1)NCCCCNc1ccnc2cc(Cl)ccc12`, the inhibition [1] is reported as 85%, the Activity [2] is reported as 56.9% and the Activity [3] is reported as “inactive”. The Activity [4] was “inactive”, the Activity [7] was “inactive” and the Activity [8] was 27%.
In the case of `O=C(/C=C/C(=O)Nc1cccc(Cl)c1)NCCCCNc1ccnc2cc(Cl)ccc12`, the inhibition [1] is reported as 75.3%, the Activity [2] is reported as 45.8% and the Activity [3] is reported as “inactive”. The Activity [4] was “inactive”, the inhibition [9] was 75% and the Activity [8] was 27%.
For `COc1cc(NC(C)CCCNC(=O)/C=C/C(=O)Nc2ccc(F)cc2)c2ncccc2c1` (stereo unspecified), the inhibition [1] was “inactive” and the Activity [2] was 24.2%.
`O=c1c(O)c(-c2ccc(O)c(O)c2)oc2cc(O)cc(O)c12` [QUERCETIN] was tested, and the inhibition [1] was 55.8%, the Activity [2] was 14.7% and the Activity [3] was 66.8%. It also gave an Activity [4] of 17.1%.
`COc1cc(NC(C)CCCNC(=O)/C=C/C(=O)Nc2ccc(Cl)cc2)c2ncccc2c1` (stereo unspecified) was tested, and the inhibition [1] was “inactive” and the Activity [2] was “inactive”.
With `COc1cc(NC(C)CCCNC(=O)/C=C/C(=O)Nc2ccc(C(F)(F)F)cc2)c2ncccc2c1` (stereo unspecified) the inhibition [1] was “inactive” and the Activity [2] was 31.2%.
With `O=C(/C=C/C(=O)Nc1ccc(F)cc1)NCCCCNc1ccnc2cc(Cl)ccc12` the inhibition [1] was 87.9%, the Activity [2] was 39.7% and the Activity [3] was “inactive”. For the same compound, the Activity [4] was “inactive”, the Activity [7] was “inactive” and the inhibition [9] was 75%.
`O=C(/C=C/C(=O)Nc1cccc(C(F)(F)F)c1)NCCCCNc1ccnc2cc(Cl)ccc12` was tested, and the inhibition [1] was “inactive” and the Activity [2] was “inactive”.
`CC(C)(C)OC(=O)NC1CCN(C(=O)/C=C/C(=O)NCCCCNc2ccnc3cc(Cl)ccc23)CC1` showed an inhibition [1] of 9.1% and an Activity [2] of 44.6%.
`O=C(/C=C/C(=O)Nc1ccc(C(F)(F)F)cc1)NCCCCNc1cc(C(F)(F)F)nc2c(C(F)(F)F)cccc12` was tested, and the inhibition [1] was “inactive” and the Activity [2] was “inactive”.
`O=C(/C=C/C(=O)NC1CCNCC1)NCCCCNc1ccnc2cc(Cl)ccc12` was tested, and the inhibition [1] was 45.9%, the Activity [2] was 6.5% and the Activity [3] was 61.6%. For the same compound, the Activity [4] was 10.3%, the inhibition [5] was 5.4% and the Activity [6] was 42.8%.
For `COc1cc(NC(C)CCCNC(=O)/C=C/C(=O)Nc2cccc(Cl)c2)c2ncccc2c1` (stereo unspecified), the inhibition [1] was “inactive” and the Activity [2] was 17.9%.
`O=C(/C=C/C(=O)Nc1cccc(F)c1)NCCCCNc1ccnc2cc(Cl)ccc12` was tested, and the inhibition [1] was 79.4%, the Activity [2] was 27.8% and the Activity [3] was “inactive”. For the same compound, the Activity [4] was “inactive”, the Activity [7] was “inactive” and the inhibition [9] was 75%. For the same compound, the Activity [8] was 27%.
`COc1cc(NC(C)CCCN)c2ncccc2c1` (stereo unspecified) was tested, and the inhibition [1] was “inactive”, the Activity [2] was “inactive” and the Activity [3] was “inactive”. For the same compound, the Activity [4] was “inactive”.
For `O=C(/C=C/C(=O)Nc1ccc(Cl)cc1)NCCCCNc1cc(C(F)(F)F)nc2c(C(F)(F)F)cccc12`, the inhibition [1] was 29.9% and the Activity [2] was “inactive”.
`CC[C@H]1OC(=O)[C@H](C)[C@@H](O[C@H]2C[C@@](C)(OC)[C@@H](O)[C@H](C)O2)[C@H](C)[C@@H](O[C@@H]2O[C@H](C)C[C@H](N(C)C)[C@H]2O)[C@](C)(O)C[C@@H](C)CN(C)[C@H](C)[C@@H](O)[C@]1(C)O` [AZITHROMYCIN] was tested, and the inhibition [1] was 90.6%, the Activity [2] was 85.6% and the Activity [3] was 86.3%. The Activity [4] was 67.2%, the Activity [6] was 86.3% and the inhibition [9] was 90.6%.
`CC(C)(C)OC(=O)NCCNC(=O)/C=C/C(=O)NCCCCNc1ccnc2cc(Cl)ccc12` showed an inhibition [1] of 23% and an Activity [2] of 10.7%.
For `O=C(/C=C/C(=O)Nc1ccc(C(F)(F)F)cc1)NCCCCNc1ccnc2cc(Cl)ccc12`, the inhibition [1] was 85.7%, the Activity [2] was 27.7% and the Activity [3] was “inactive”. For the same compound, the Activity [4] was “inactive” and the Activity [7] was “inactive”.
With `CC(C)(C)OC(=O)Nc1ccc(NC(=O)/C=C/C(=O)NCCCCNc2ccnc3cc(Cl)ccc23)cc1` the inhibition [1] was “inactive” and the Activity [2] was 43.7%.
